Consider four molecules from article PMC5128747, “Biscogniauxone, a New Isopyrrolonaphthoquinone Compound from the Fungus Biscogniauxia mediterranea Isolated from Deep-Sea Sediments” (Marine Drugs, 2016).

The target of experiment [1] is T1, glycogen synthase kinase (GSK-3β) (Homo sapiens, UniProt P49841). Briefly: Inhibition of glycogen synthase kinase (GSK-3β). It is filed as biochemical. As to conditions: concentrations 0.1 μM to 50 μM analyzed twice in duplicates. The method, then: (§1) The phytopathogenic fungus Septoria tritici and the dermatophytic fungus Trichophyton rubrum as well as the cytotoxic effect on the human hepatocellular liver carcinoma cell line HepG2 were tested according to Jansen et al.. Inhibition of the enzymes glycogen synthase kinase (GSK-3β), acetylcholinesterase (AchE), phosphodiesterase (PDE-4B2), and protein tyrosine phosphatase (PTP1B) was determined according to Baki et al., Ohlendorf et al., Schulz et al., and Silber et al., respectively. The concentration of the compounds used in the initial bioassays was 100 μM (antibiotic tests), 50 μM (cytotoxic tests), and 10 μM (enzymatic tests).
T1 sequence (P49841 whole entry): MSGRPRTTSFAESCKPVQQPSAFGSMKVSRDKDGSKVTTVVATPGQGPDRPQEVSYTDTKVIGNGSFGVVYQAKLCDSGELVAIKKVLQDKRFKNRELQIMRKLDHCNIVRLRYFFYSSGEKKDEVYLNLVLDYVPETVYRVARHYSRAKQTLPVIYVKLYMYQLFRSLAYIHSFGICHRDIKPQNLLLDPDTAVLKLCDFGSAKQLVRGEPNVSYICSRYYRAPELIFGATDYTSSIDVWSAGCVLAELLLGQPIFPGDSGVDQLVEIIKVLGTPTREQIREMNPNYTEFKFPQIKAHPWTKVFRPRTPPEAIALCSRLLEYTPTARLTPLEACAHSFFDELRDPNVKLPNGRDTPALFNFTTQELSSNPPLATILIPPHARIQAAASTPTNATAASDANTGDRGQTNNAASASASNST

Experiment [2] deals with Staphylococcus epidermidis (DSM 20044). Briefly: Antibacterial growth inhibition, Staphylococcus epidermidis. It is filed as cell-based. As to conditions: DSM20044, very weak inhibition, in the range of. Here is the method:
as §1, with “The antimicrobial activities of compounds 1 and 2 against the bacteria Bacillus subtilis as well as the human pathogenic yeast Candida albicans (DSM 1386) were determined according to Ohlendorf et al.. The bioassays with the clinically relevant bacterial strains Staphylococcus epidermidis (DSM 20044), methicillin-resistant Staphylococcus aureus (MRSA) (DSM 18827), and the causative agent of acne, Propionibacterium acnes (DSM 1897^T), were performed as described by Silber et al.. The phytopathogenic” for “The phytopathogenic”, “(enzymatic tests). […]” for “(enzymatic tests).”

The test system of experiment [3] is methicillin-resistant Staphylococcus aureus (MRSA) (DSM 18827). Briefly: Antibacterial growth inhibition, MRSA. As to conditions: very weak inhibition, in the range of. It counts as cell-based.
Experiment [4] has as its system Septoria tritici. Briefly: Antifungal growth inhibition, Septoria tritici. It is filed as cell-based. As to conditions: in the same concentration range (IC50 in the range of 100 μM). The method, then:
as §1, with “The antimicrobial activities of compounds 1 and 2 against the bacteria Bacillus subtilis as well as the human pathogenic yeast Candida albicans (DSM 1386) were determined according to Ohlendorf et al.. The bioassays with the clinically relevant bacterial strains Staphylococcus epidermidis (DSM 20044), methicillin-resistant Staphylococcus aureus (MRSA) (DSM 18827), and the causative agent of acne, Propionibacterium acnes (DSM 1897^T), were performed as described by Silber et al.. The phytopathogenic” for “The phytopathogenic”, “(enzymatic tests). […]” for “(enzymatic tests).”

In experiment [5] the test system is Trichophyton rubrum. Briefly: Antifungal growth inhibition, Trichophyton rubrum. As to conditions: in the same concentration range (IC50 in the range of 100 μM). It is filed as cell-based. Here is the method:
as §1, with “The antimicrobial activities of compounds 1 and 2 against the bacteria Bacillus subtilis as well as the human pathogenic yeast Candida albicans (DSM 1386) were determined according to Ohlendorf et al.. The bioassays with the clinically relevant bacterial strains Staphylococcus epidermidis (DSM 20044), methicillin-resistant Staphylococcus aureus (MRSA) (DSM 18827), and the causative agent of acne, Propionibacterium acnes (DSM 1897^T), were performed as described by Silber et al.. The phytopathogenic” for “The phytopathogenic”, “(enzymatic tests). […]” for “(enzymatic tests).”

Experiment [6] addresses acetylcholinesterase (AchE) (Homo sapiens, UniProt P22303). Briefly: Inhibition of acetylcholinesterase (AchE). It is filed as biochemical. The method, then:
as §1

Experiment [7] has as its target T1, glycogen synthase kinase (GSK-3β). Set-up: method as in PMID 24045329. As to conditions: read-out: IC50, inhibition of GSK-3β; cited from earlier work.

≈ marks a conversion by molar mass, not a printed value. Where “and” joins values, the source holds several entries; their conditions need not be identical. Identical values can stand only once. Like-named read-outs stand apart in the source and are kept apart here. Where a SMILES comes first, the peptide text is derived from it.

acetylcholinesterase (AchE), sequence (P22303 32-614): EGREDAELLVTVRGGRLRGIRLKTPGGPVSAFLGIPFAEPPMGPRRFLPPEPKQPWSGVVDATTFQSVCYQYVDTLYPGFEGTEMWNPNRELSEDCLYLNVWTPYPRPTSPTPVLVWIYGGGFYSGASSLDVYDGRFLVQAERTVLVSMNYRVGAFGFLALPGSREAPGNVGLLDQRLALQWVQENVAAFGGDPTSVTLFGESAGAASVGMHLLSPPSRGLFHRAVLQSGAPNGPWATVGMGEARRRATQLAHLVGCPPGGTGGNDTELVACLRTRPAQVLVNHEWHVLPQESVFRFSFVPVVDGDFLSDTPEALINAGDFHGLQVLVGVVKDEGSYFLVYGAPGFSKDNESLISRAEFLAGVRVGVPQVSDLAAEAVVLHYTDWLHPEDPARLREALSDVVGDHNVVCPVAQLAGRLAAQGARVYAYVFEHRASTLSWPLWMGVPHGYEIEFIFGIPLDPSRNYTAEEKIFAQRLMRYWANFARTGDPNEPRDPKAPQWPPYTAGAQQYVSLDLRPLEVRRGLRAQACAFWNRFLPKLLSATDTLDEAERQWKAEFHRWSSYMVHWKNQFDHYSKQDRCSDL

Take `O=C1c2c[nH]cc2C(=O)c2c(O)cc(O)cc21` [Compound 1, biscogniauxone]: the IC50 is 8.04 µM and 8 µM in experiment [1]; about 100 µM in experiment [2]; about 100 µM in experiment [3].
On to `COc1cc(O)c2c(c1C)C[C@H](C)OC2=O` [Compound 2, 6-methoxy-5-methyl mellein], for which the “inhibition of Septoria tritici” value in experiment [4] was “weakly inhibited”. Further, the “inhibition of Trichophyton rubrum” value in experiment [5] was “weakly inhibited”.
Consider `CC(C)C[C@@H]1NC(=O)[C@H](CC(C)C)NC(=O)[C@H](C(C)C)NC(=O)[C@H](CC(C)C)NC(=O)[C@H](Cc2ccccc2)NC1=O` [Compound 3, cyclo-(L-Phe-L-Leu-L-Val-L-Leu-L-Leu)] (cyclo(FLVLL)), for which the “minimal inhibition concentration (MIC), inhibitory effect on AchE” value in experiment [6] worked out at 5.87 µM (≈ 3.44 µg/mL).
Take bhimamycin H: the IC50 in experiment [7] is 18 µM.
